Source: ChEMBL document CHEMBL4725254, “Irregularly Bridged Epipolythiodioxopiperazines and Related Analogues: Sources, Structures, and Biological Activities” (J Nat Prod, 2020)
In brackets after ≈: the same amount, converted by molar mass. Blank lines part the entries; values can stand above or below the compound they belong to.

Columns and labels:
CWR22R = test: Antitumor activity against human CWR22R cells; format: functional, cell-based; settings: 22Rv1
PC-3 = test: Antitumor activity against human PC-3 cells; format: functional, cell-based
LNCaP = test: Antitumor activity against human LNCaP cells; format: functional, cell-based
[1] = tested on: Human immunodeficiency virus; test: Antiviral activity against HIV; format: functional, organism-based; settings: Human immunodeficiency virus 1
[2] = […] activity against Eupenicillium abidjanum IFO 8939; format: functional; settings: Penicillium abidjanum
Jurkat = test: Cytotoxicity against human Jurkat cells after 72 hrs by microtitre plate assay; format: functional, cell-based
[3] = Cytotoxicity against mouse NS-1 cells after 72 hrs by microtitre plate assay; format: functional, cell-based; settings: NS1, 72 h
HepG2 = test: Growth inhibition of human HepG2 cells; format: functional

IC50 [1]: 16 µM
Compound: CS[C@@]12CC3=CC=C[C@H](O)[C@H]3N1C(=O)[C@@]13C[C@H]4C(=O)C[C@@H](SS1)[C@H](O)[C@H]4N3C2=O

IC50 [1]: 10 µM
Compound: CS[C@@]12C[C@H]3C(=O)CC[C@H](O)[C@H]3N1C(=O)[C@@]13C[C@@H]4[C@@H]([C@@H](O)C=C[C@@H]4S1)N3C2=O

IC50 [1]: 10 µM
Compound: CS[C@@]12CC3=CC=C[C@H](O)[C@H]3N1C(=O)[C@@]13C[C@H]4C(=O)C[C@@H](S1)[C@H](O)[C@H]4N3C2=O

IC50 [1]: 10 µM
Compound: CS[C@@]12CC3=CC=C[C@H](O)[C@H]3N1C(=O)[C@]13C[C@H]4C(=O)[C@H](C[C@H](O)[C@H]4N1C2=O)S3

IC50 [1]: 10 µM
Compound: CS[C@@]12CC3=CC=C[C@H](O)[C@H]3N1C(=O)[C@@]13C[C@@H]4[C@@H]([C@@H](O)[C@@H](C[C@@H]4O)S1)N3C2=O

IC50 [1]: 10 µM
Compound: CS[C@@]12C[C@H]3C(=O)CC[C@H](O)[C@H]3N1C(=O)[C@@]13C[C@@H]4[C@@H]([C@@H](O)[C@@H](C[C@@H]4O)S1)N3C2=O

IC50 [1]: 10 µM
Compound: CS[C@@]12C[C@H]3C(=O)CC[C@H](O)[C@H]3N1C(=O)[C@@]13C[C@H]4C(=O)C[C@@H](S1)[C@H](O)[C@H]4N3C2=O [EPICOCCIN O]

Further lines, the compound ahead of its results:

Compound: COc1ccc([C@H]2SS[C@@]34C[C@]5(O)[C@H](Cl)C=C[C@@H](O)[C@@H]5ON3C(=O)[C@@H]2N(C)C4=O)c(O)c1OC
IC50 (CWR22R): 0.51 µM
IC50 (PC-3): 5.1 µM
IC50 (LNCaP): 1.8 µM

Compound: COc1ccc([C@H]2SS[C@@]34C[C@]56O[C@H]5C=C[C@@H](O)[C@@H]6ON3C(=O)[C@@H]2N(C)C4=O)c(O)c1OC
MIC [2]: 10 µg/mL (≈ 20.2 µM)

Compound: COc1ccc2cc(NC(=O)[C@@]34C[C@]5(O)[C@@H](C=C[C@@H](O)[C@@H]5ON3)SS4)c(=O)oc2c1OC
IC50 (Jurkat): 1.3 µM
IC50 [3]: 10 µM

Compound: COc1ccc([C@H]2SS[C@@]34C[C@]5(O)[C@H](Cl)C=C[C@@H](O)[C@@H]5ON3C(=O)[C@@H]2NC4=O)c(O)c1OC
IC50 (Jurkat): 5.1 µM

Compound: CSC1c2ccccc2O[C@]12C(=O)N1O[C@]3(CCC=CC3=O)[C@@H](O)C1(SC)C(=O)N2C (stereo not given in full)
GI50 (HepG2): 8 µM
